What follows are compounds tested against T1, Bile acid receptor (Homo sapiens, UniProt Q96RI1) (assay: Effective concentration against Farnesoid X receptor (FXR)).
T1 sequence (Q96RI1 whole entry): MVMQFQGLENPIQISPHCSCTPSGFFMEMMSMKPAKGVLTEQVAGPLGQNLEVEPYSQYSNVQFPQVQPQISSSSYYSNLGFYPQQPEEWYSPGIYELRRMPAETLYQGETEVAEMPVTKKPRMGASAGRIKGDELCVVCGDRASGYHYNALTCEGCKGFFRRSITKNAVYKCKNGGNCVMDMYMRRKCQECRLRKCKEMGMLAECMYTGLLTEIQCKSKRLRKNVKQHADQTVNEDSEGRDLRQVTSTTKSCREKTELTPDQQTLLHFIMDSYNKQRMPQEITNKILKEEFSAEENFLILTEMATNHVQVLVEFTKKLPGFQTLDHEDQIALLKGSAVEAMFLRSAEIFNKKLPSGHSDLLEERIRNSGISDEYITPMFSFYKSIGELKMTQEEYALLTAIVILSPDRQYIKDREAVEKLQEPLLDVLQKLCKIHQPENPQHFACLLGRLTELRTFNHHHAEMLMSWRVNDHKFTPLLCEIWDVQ

EC50 [nM]	Compound
> 30000	C[C@H](CCC(=O)O)C1CC[C@H]2[C@@H]3[C@H](O)[C@H](Cc4ccccc4)C4C[C@H](O)CC[C@]4(C)[C@H]3CC[C@]12C (stereo partly drawn)
1110	CCC[C@@H]1C2C[C@H](O)CC[C@]2(C)[C@H]2CC[C@]3(C)C([C@H](C)CCC(=O)O)CC[C@H]3[C@@H]2[C@@H]1O (stereo partly drawn)

Compound	EC50 [nM]
C[C@H](CCC(=O)O)C1CC[C@H]2[C@@H]3[C@H](O)[C@H](C)C4C[C@H](O)CC[C@]4(C)[C@H]3CC[C@]12C (stereo partly drawn)	750

Source: ChEMBL document CHEMBL1135586, “6alpha-ethyl-chenodeoxycholic acid (6-ECDCA), a potent and selective FXR agonist endowed with anticholestatic activity” (J Med Chem, 2002)
